In US20030082226A1, “Non-steroidal antiinflammatory drug formulations for topical application to the skin” (priority 1997, published 2003):

Assay: Delivery of various NSAIDs through human skin, effect of propylene glycol, static cells (Example 8)
Format: in vitro ADME
Conditions: 10% enhancer; for Avg 24 Hour % Dose: ethanol:water 70:30, pH about 7, human skin; for effect of propylene glycol on total delivery (percent of original dose) at twenty four hours: 0 to 20% PG
Source text: All the tested formulations included ethanol and water at a 70:30 weight ratio and were neutralized with base to a pH of about 7.

Row | Avg 24 Hour % Dose (0% PG) [%] | Avg 24 Hour % Dose (5% PG) [%] | Avg 24 Hour % Dose (10% PG) [%] | Avg 24 Hour % Dose (20% PG) [%] | Avg 24 Hour % Dose (15% PG) [%] | effect of propylene glycol on total delivery (percent of original dose) at twenty four hours | SMILES
1 | 18.7 | 29.7 | 35.3 | 45.2 | – | – | O=C(O)Cc1ccccc1Nc1c(Cl)cccc1Cl [Diclofenac]
2 | 61.7 | 57.9 | 56.5 | 28.3 | 50.1 | – | CC(C)Cc1ccc(C(C)C(=O)O)cc1 (stereo not shown) [Ibuprofen]
3 | 9.1 | 10.3 | 12.0 | 27.0 | – | – | CC(C(=O)O)c1cccc(C(=O)c2ccccc2)c1 (stereo not shown) [Ketoprofen]
4 | 10.8 | 27.1 | 25.0 | 19.3 | – | intermediate | O=C(c1ccccc1)c1ccc2n1CCC2C(=O)O (stereo not shown) [Ketorolac]
5 | 66.3 | – | 55.1 | 63.5 | – | substantially neutral | CN1C(C(=O)Nc2ccccn2)=C(O)c2ccccc2S1(=O)=O [Piroxicam]
